SMILES strings stand for the structures.

Experiment [1] has as its target HIS-TGFβR2 WT (Homo sapiens, UniProt P37173). Description: HTRF probe-displacement assay, HIS-TGFβR2 WT. The experiment is classed as binding. (In general: In TR-FRET formats the signal depends on donor and acceptor labels being close together.)
For experiment [2], the target named is T1, HIS-TGFβR1 T204D (Homo sapiens, UniProt P36897, T204D).
T1 sequence (P36897 34-503 T204D): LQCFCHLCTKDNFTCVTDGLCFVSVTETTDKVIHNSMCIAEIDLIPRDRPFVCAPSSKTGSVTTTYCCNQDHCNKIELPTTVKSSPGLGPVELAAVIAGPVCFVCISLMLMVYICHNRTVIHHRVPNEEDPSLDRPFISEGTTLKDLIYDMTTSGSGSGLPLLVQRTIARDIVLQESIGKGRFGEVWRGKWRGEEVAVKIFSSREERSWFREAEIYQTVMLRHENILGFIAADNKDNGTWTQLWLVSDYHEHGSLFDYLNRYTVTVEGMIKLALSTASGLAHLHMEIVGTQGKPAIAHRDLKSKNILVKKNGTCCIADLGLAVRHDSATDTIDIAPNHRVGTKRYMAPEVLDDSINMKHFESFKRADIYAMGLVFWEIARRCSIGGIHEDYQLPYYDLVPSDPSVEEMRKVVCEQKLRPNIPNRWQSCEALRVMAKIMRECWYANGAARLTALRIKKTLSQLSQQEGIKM
Description: HTRF probe-displacement assay, HIS-TGFβR1 T204D. Type of experiment: binding. The following applies: read-out: TGFβR1 (μM) IC50.

HIS-TGFβR2 WT, sequence (P37173 23-567): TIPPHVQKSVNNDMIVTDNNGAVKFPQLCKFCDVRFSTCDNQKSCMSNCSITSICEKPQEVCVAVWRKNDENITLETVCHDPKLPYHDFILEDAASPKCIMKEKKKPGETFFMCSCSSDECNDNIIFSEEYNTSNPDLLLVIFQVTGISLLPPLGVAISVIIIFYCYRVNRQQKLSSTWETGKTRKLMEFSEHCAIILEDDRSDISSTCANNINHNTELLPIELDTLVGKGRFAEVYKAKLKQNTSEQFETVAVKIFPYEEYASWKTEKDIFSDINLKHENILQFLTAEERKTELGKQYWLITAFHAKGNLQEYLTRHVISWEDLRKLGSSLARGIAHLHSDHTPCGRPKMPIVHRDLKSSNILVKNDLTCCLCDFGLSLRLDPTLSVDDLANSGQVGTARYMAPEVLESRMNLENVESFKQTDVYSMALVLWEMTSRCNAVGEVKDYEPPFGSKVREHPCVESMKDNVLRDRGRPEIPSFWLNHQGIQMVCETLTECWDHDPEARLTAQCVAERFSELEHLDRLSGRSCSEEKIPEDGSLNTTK

By IC50 is commonly meant the concentration that gives 50% inhibition. Take `COc1ccc(-c2c(-c3ccnc(NC(C)=O)c3)[nH]c3cc(N4CCC[C@H]4CO)cnc23)nc1` [Example 162, (S)-N-(4-(6-(2-(Hydroxymethyl)pyrrolidin-1-yl)-3-(5-methoxypyridin-2-yl)-1H-pyrrolo[3,2-b]pyridin-2-yl)pyridin-2-yl)acetamide]: the half-maximal inhibitory concentration (IC50) was above 15 µM in experiment [1] and 0.0279 µM in experiment [2].

Regarding `CC(=O)Nc1cc(-c2[nH]c3c([C@H](C)O)ccnc3c2-c2cccc(C(F)F)n2)ccn1` (single isomer, unassigned) [Example 147], the IC50 came to 0.75 µM in experiment [1] and 0.002 µM in experiment [2].

With `CC(=O)Nc1cc(-c2[nH]c3cccnc3c2-c2ccnc(C#N)c2)ccn1` [Example 190, N-(4-(3-(2-Cyanopyridin-4-yl)-1H-pyrrolo[3,2-b]pyridin-2-yl)pyridin-2-yl)acetamide], the IC50 in experiment [1] is 7.56 µM; in experiment [2], 0.0443 µM.

Turning to `CC(=O)Nc1cc(-c2[nH]c3c(C4CCN(C)CC4)ccnc3c2-c2cccc(C)n2)ccn1` [Example 138, N-{4-[7-(1-Methylpiperidin-4-yl)-3-(6-methylpyridin-2-yl)-1H-pyrrolo[3,2-b]pyridin-2-yl]pyridin-2-yl}acetamide], the IC50 in experiment [1] is above 15 µM; in experiment [2] it was 0.2 µM.

On to `CC(=O)Nc1cc(-c2[nH]c3c([C@@H](C)O)ccnc3c2-c2cccc(C(F)F)n2)ccn1` (single isomer, unassigned) [Example 146], for which the IC50 in experiment [1] was found to be 1.78 µM; in experiment [2] it was 0.001 µM.

For `COc1ccc(-c2c(-c3ccnc(NC(C)=O)c3)[nH]c3c(C(C)=O)ccnc23)cn1` [Example 298, N-(4-(7-Acetyl-3-(6-methoxypyridin-3-yl)-1H-pyrrolo[3,2-b]pyridin-2-yl)pyridin-2-yl)acetamide], the IC50 was determined as 0.12 µM in experiment [1] and 0.008 µM in experiment [2].

Turning to `COc1ccc(-c2c(-c3ccnc(NC(C)=O)c3)[nH]c3cc(N(C)CCO)cnc23)nc1` [Example 165, N-(4-(6-((2-Hydroxyethyl)(methyl)amino)-3-(5-methoxypyridin-2-yl)-1H-pyrrolo[3,2-b]pyridin-2-yl)pyridin-2-yl)acetamide], the IC50 is above 15 µM in experiment [1] and 0.0353 µM in experiment [2].

As to `CNC(=O)c1ccnc2c(-c3ccc(OC)nc3)c(-c3ccnc(NC(C)=O)c3)[nH]c12` [Example 57, 2-(2-Acetamidopyridin-4-yl)-3-(6-methoxypyridin-3-yl)-N-methyl-1H-pyrrolo[3,2-b]pyridine-7-carboxamide], the IC50 in experiment [1] is 0.11 µM; in experiment [2], 0.019 µM.

For `COC(=O)Nc1cc(-c2[nH]c3cc(OC)cnc3c2-c2ccc(OC)cn2)ccn1` [Example 124, Methyl N-{4-[6-methoxy-3-(5-methoxypyridin-2-yl)-1H-pyrrolo[3,2-b]pyridin-2-yl]pyridin-2-yl}carbamate], the 50% inhibitory concentration (IC50) in experiment [1] was found to be 12.8 µM; in experiment [2], 0.001 µM.

With `CC(=O)Nc1cc(-c2[nH]c3cccnc3c2-c2cc(Cl)ccn2)ccn1` [Example 32, N-{4-[3-(4-Chloropyridin-2-yl)-1H-pyrrolo[3,2-b]pyridin-2-yl]pyridin-2-yl}acetamide], the IC50 in experiment [1] was found to be 0.44 µM; in experiment [2], 0.049 µM.

In the case of `COc1ccc(-c2c(-c3ccnc(NCC(C)C)c3)[nH]c3cc(Cl)cnc23)nc1` [Example 243, 4-(6-Chloro-3-(5-methoxypyridin-2-yl)-1H-pyrrolo[3,2-b]pyridin-2-yl)-N-isobutylpyridin-2-amine], the IC50 is at least 15 µM in experiment [1] and 0.361 µM in experiment [2].

`O=C(CO)Nc1cc(-c2[nH]c3cc(Cl)cnc3c2-c2ccc(F)cn2)ccn1` [Example 72, N-{4-[6-Chloro-3-(5-fluoropyridin-2-yl)-1H-pyrrolo[3,2-b]pyridin-2-yl]pyridin-2-yl}-2-hydroxyacetamide]: the IC50 in experiment [1] was determined as 1.55 µM; in experiment [2], 0.008 µM.

Regarding `COc1cccc(-c2c(-c3ccnc(NC(C)=O)c3)[nH]c3cccnc23)n1` [Example 2, N-{4-[3-(6-Methoxypyridin-2-yl)-1H-pyrrolo[3,2-b]pyridin-2-yl]pyridin-2-yl}acetamide], the IC50 turned out to be 7.85 µM in experiment [1] and 0.006 µM in experiment [2].

Regarding `CC(=O)Nc1cc(-c2[nH]c3cccnc3c2-c2ccc(C(F)(F)F)nc2)ccn1` [Example 13, N-(4-{3-[6-(Trifluoromethyl)pyridin-3-yl]-1H-pyrrolo[3,2-b]pyridin-2-yl}pyridin-2-yl)acetamide], the values for the IC50 in experiment [1] and in experiment [2] were above 15 µM and 0.002 µM, respectively.

Turning to `CC(=O)Nc1cc(-c2[nH]c3cccnc3c2-c2ccc(Cl)nc2)ccn1` [Example 9, N-{4-[3-(6-Chloropyridin-3-yl)-1H-pyrrolo[3,2-b]pyridin-2-yl]pyridin-2-yl}acetamide], the IC50 was 0.33 µM in experiment [1] and 0.023 µM in experiment [2].

As to `CC(=O)Nc1cc(-c2[nH]c3c(C#N)ccnc3c2-c2nc(C)cs2)ccn1` [Example 240, N-(4-(7-Cyano-3-(4-methylthiazol-2-yl)-1H-pyrrolo[3,2-b]pyridin-2-yl)pyridin-2-yl)acetamide], the IC50 is above 15 µM in experiment [1] and 0.594 µM in experiment [2].

In the case of `COc1ccc(-c2c(-c3ccnc(NC(C)=O)c3)[nH]c3cc(N4CCOCC4)cnc23)nc1` [Example 164, N-(4-(3-(5-Methoxypyridin-2-yl)-6-morpholino-1H-pyrrolo[3,2-b]pyridin-2-yl)pyridin-2-yl)acetamide], the IC50 in experiment [1] is above 15 µM; in experiment [2], 0.0053 µM.

Consider `CC(=O)Nc1cc(-c2[nH]c3cccnc3c2-c2nc(C)cs2)ccn1` [Example 199, N-(4-(3-(4-Methylthiazol-2-yl)-1H-pyrrolo[3,2-b]pyridin-2-yl)pyridin-2-yl)acetamide], for which the IC50 in experiment [1] came out at 0.041 µM; in experiment [2] it was 0.0006 µM.

Take `COc1ccc(-c2c(-c3ccnc(NC(=O)CN4CCOCC4)c3)[nH]c3cc(Cl)cnc23)cn1` [Example 290, N-(4-(6-Chloro-3-(6-methoxypyridin-3-yl)-1H-pyrrolo[3,2-b]pyridin-2-yl)pyridin-2-yl)-2-morpholinoacetamide]: the IC50 turned out to be 1.12 µM in experiment [1] and 0.002 µM in experiment [2].

In the case of `CC(=O)Nc1cc(-c2[nH]c3cc(Cl)cnc3c2-c2ccc(Cl)cn2)ccn1` [Example 46, N-{4-[6-Chloro-3-(5-chloropyridin-2-yl)-1H-pyrrolo[3,2-b]pyridin-2-yl]pyridin-2-yl}acetamide], the 50% inhibitory concentration (IC50) in experiment [1] is above 15 µM; in experiment [2] it was 0.008 µM.

As to `COc1cnc2c(-c3cccc(C)n3)c(-c3ccnc(NC(=O)CN(C)C)c3)[nH]c2c1` [Example 116, 2-(Dimethylamino)-N-{4-[6-methoxy-3-(6-methylpyridin-2-yl)-1H-pyrrolo[3,2-b]pyridin-2-yl]pyridin-2-yl}acetamide], the IC50 in experiment [1] worked out at 7.35 µM; in experiment [2] it was 0.005 µM.

Consider `CC(=O)Nc1cc(-c2[nH]c3cccnc3c2-c2cnc(F)c(F)c2)ccn1` [Example 10, N-{4-[3-(5,6-Difluoropyridin-3-yl)-1H-pyrrolo[3,2-b]pyridin-2-yl]pyridin-2-yl}acetamide], for which the figures for the IC50 in experiment [1] and in experiment [2] were 0.01 µM and 0.057 µM, respectively.

Regarding `CC(=O)Nc1cc(-c2[nH]c3c(CO)ccnc3c2-c2cccc(F)n2)ccn1` [Example 275, N-(4-(3-(6-Fluoropyridin-2-yl)-7-(hydroxymethyl)-1H-pyrrolo[3,2-b]pyridin-2-yl)pyridin-2-yl)acetamide], the IC50 is 0.637 µM in experiment [1] and 0.003 µM in experiment [2].

Regarding `CNC(=O)c1cc(Cl)nc2c(-c3ccc(OC)nc3)c(-c3ccnc(NC(C)=O)c3)[nH]c12` [Example 56, 5-Chloro-2-(2-acetamidopyridin-4-yl)-3-(6-methoxypyridin-3-yl)-N-methyl-1H-pyrrolo[3,2-b]pyridine-7-carboxamide], the results for the 50% inhibitory concentration (IC50) in experiment [1] and in experiment [2] were 1.1 µM and 0.017 µM, respectively.

As to `CC(=O)Nc1cc(-c2[nH]c3cccnc3c2-c2cccc3cccnc23)ccn1` [Example 21, N-{4-[3-(Quinolin-8-yl)-1H-pyrrolo[3,2-b]pyridin-2-yl]pyridin-2-yl}acetamide], the figures for the 50% inhibitory concentration (IC50) in experiment [1] and in experiment [2] were above 15 µM and 1.49 µM, respectively.

On to `COc1ccc(-c2c(-c3ccnc(NC(C)=O)c3)[nH]c3c(Cl)ccnc23)nc1` [Example 62, N-{4-[7-Chloro-3-(5-methoxypyridin-2-yl)-1H-pyrrolo[3,2-b]pyridin-2-yl]pyridin-2-yl}acetamide], for which the half-maximal inhibitory concentration (IC50) is above 15 µM in experiment [1] and 0.009 µM in experiment [2].

In the case of `COc1ccc(-c2c(-c3ccnc(NC(=O)C4CC4)c3)[nH]c3cccnc23)cn1` [Example 53, N-{4-[3-(6-Methoxypyridin-3-yl)-1H-pyrrolo[3,2-b]pyridin-2-yl]pyridin-2-yl}cyclopropanecarboxamide], the half-maximal inhibitory concentration (IC50) in experiment [1] amounted to 0.005 µM; in experiment [2], 0.002 µM.

Take `COc1ccc(-c2c(-c3ccnc(NC(C)=O)c3)[nH]c3cc(Cl)cnc23)nc1` [Example 47, N-{4-[6-Chloro-3-(5-methoxypyridin-2-yl)-1H-pyrrolo[3,2-b]pyridin-2-yl]pyridin-2-yl}acetamide]: the results for the IC50 in experiment [1] and in experiment [2] were above 15 µM and 0.004 µM, respectively.

As for `COc1ccc(-c2c(-c3ccnc(NC(=O)CN4CCN(CCO)CC4)c3)[nH]c3cccnc23)cn1` [Example 288, 2-(4-(2-Hydroxyethyl)piperazin-1-yl)-N-(4-(3-(6-methoxypyridin-3-yl)-1H-pyrrolo[3,2-b]pyridin-2-yl)pyridin-2-yl)acetamide], the IC50 in experiment [1] worked out at 0.487 µM; in experiment [2], 0.002 µM.

(Values after patent US9708316B2 (BRISTOL-MYERS SQUIBB COMPANY, priority 2014, dated 2017).)
